# Key:
# Assay type in all cases: in vivo
# [1] = system: ducksalad (Heteranthera limosa); assay: Test B flooded paddy test; settings: Flood, 0 to 100 scale where 0 is no effect and 100 is complete control, 13 to 15 d
# Procedure: (§1) Plant species in the flooded paddy test selected from rice (Oryra sativa), sedge, umbrella (small-flower umbrella sedge, Cyperus difformis), ducksalad (Heteranthera limosa), and barnyardgrass (Echinochloa crus-galli) were grown to the 2-leaf stage for testing. At time of treatment, test pots were flooded to 3 cm above the soil surface, treated by application of test compounds directly to the paddy water, and then maintained at that water depth for the duration of the test. Treated plants and controls were maintained in a greenhouse for 13 to 15 d, after which time all species were compared to controls and visually evaluated. Plant response ratings, summarized in Table B, are based on a scale of 0 to 100 where 0 is no effect and 100 is complete control. A dash (-) response means no test result.
# [2] = system: sedge, umbrella (small-flower umbrella sedge, Cyperus difformis); assay: Test B flooded paddy test; settings: Flood, 0 to 100 scale where 0 is no effect and 100 is complete control, 13 to 15 d
# Procedure: as §1
# rice (Oryra sativa) = assay: Test B flooded paddy test; settings: Flood, 0 to 100 scale where 0 is no effect and 100 is complete control, 13 to 15 d
# Procedure: as §1
# [3] = system: barnyardgrass (Echinochloa crus-galli); assay: Test B flooded paddy test; settings: Flood, 0 to 100 scale where 0 is no effect and 100 is complete control, 13 to 15 d
# Procedure: as §1
# [4] = system: pigweed (Amaranthus retroflexus); assay: Test A preemergence; settings: for Plant response rating, Pigweed: 125 g ai/ha; for Pigweed plant response rating (0 to 100 scale, 0 is no effect, 100 is complete control): 500 g ai/ha, visual injury approx. 10 d
# From the text: (§2) Seeds of plant species selected from barnyardgrass (Echinochloa crus-galli), Kochia (Kochia scoparia), ragweed (common ragweed, Ambrosia elatior), ryegrass, Italian (Italian ryegrass, Lolium multiflorum), crabgrass, large (Digitaria sanguinalis), giant foxtail (Setaria faberii), green foxtail (Setaria viridis), morningglory (Ipomoea spp.), pigweed (Amaranthus retroflexus), velvetleaf (Abutilon theophrasti), wheat (Triticum aestivum), and corn (Zea mays) were planted into a blend of loam soil and sand and treated preemergence with a directed soil spray using test chemicals formulated in anon-phytotoxic solvent mixture which included a surfactant.
# (§3) At the same time, plants selected from these crop and weed species and also blackgrass (Alopecurus myosuroides), and Galium (catchweed bedstraw, Galium aparine) were planted in pots containing the same blend of loam soil and sand and treated with postemergence applications of test chemicals formulated in the same manner. Plants ranged in height from 2 to 10 cm and were in the one- to two-leaf stage for the postemergence treatment. Treated plants and untreated controls were maintained in a greenhouse for approximately 10 d, after which time all treated plants were compared to untreated controls and visually evaluated for injury. Plant response ratings, summarized in Table A, are based on a 0 to 100 scale where 0 is no effect and 100 is complete control. A dash (-) response means no test result.
# Kochia (Kochia scoparia) [5] = assay: Test A preemergence; settings: for Plant response rating, Kochia: 125 g ai/ha; for Kochia plant response rating (0 to 100 scale, 0 is no effect, 100 is complete control): 500 g ai/ha, visual injury approx. 10 d
# From the text: as §2, §3
# [6] = system: ryegrass, Italian (Italian ryegrass, Lolium multiflorum); assay: Test A preemergence; settings: for Plant response rating, Ryegrass, Italian: 125 g ai/ha; for Ryegrass, Italian plant response rating (0 to 100 scale, 0 is no effect, 100 is complete control): 500 g ai/ha, visual injury approx. 10 d
# From the text: as §2, §3
# [7] = system: giant foxtail (Setaria faberii); assay: Test A preemergence; settings: for Plant response rating, Foxtail, Giant: 125 g ai/ha; for Foxtail, Giant plant response rating (0 to 100 scale, 0 is no effect, 100 is complete control): 500 g ai/ha, visual injury approx. 10 d
# From the text: as §2, §3
# [8] = system: ragweed (common ragweed, Ambrosia elatior); assay: Test A preemergence; settings: for Plant response rating, Ragweed: 125 g ai/ha; for Ragweed plant response rating (0 to 100 scale, 0 is no effect, 100 is complete control): 500 g ai/ha, visual injury approx. 10 d
# From the text: as §2, §3
# [9] = system: barnyardgrass (Echinochloa crus-galli); assay: Test A preemergence; settings: for Plant response rating, Barnyardgrass: 125 g ai/ha; for Barnyardgrass plant response rating (0 to 100 scale, 0 is no effect, 100 is complete control): 500 g ai/ha, visual injury approx. 10 d
# From the text: as §2, §3
# [10] = system: pigweed (Amaranthus retroflexus); assay: Test A postemergence; settings: for Pigweed plant response rating: 125 g ai/ha, visual injury rating on 0 to 100 scale (0 no effect, 100 complete control), approx. 10 d; for Plant response rating, Pigweed: 500 g ai/ha
# From the text: as §2, §3
# Kochia (Kochia scoparia) [11] = assay: Test A postemergence; settings: for Kochia plant response rating: 125 g ai/ha, visual injury rating on 0 to 100 scale (0 no effect, 100 complete control), approx. 10 d; for Plant response rating, Kochia: 500 g ai/ha
# From the text: as §2, §3
# [12] = system: ryegrass, Italian (Italian ryegrass, Lolium multiflorum); assay: Test A postemergence; settings: for Ryegrass, Italian plant response rating: 125 g ai/ha, visual injury rating on 0 to 100 scale (0 no effect, 100 complete control), approx. 10 d; for Plant response rating, Ryegrass, Italian: 500 g ai/ha
# From the text: as §2, §3
# [13] = system: Galium (catchweed bedstraw, Galium aparine); assay: Test A postemergence; settings: for Galium plant response rating: 125 g ai/ha, visual injury rating on 0 to 100 scale (0 no effect, 100 complete control), approx. 10 d; for Plant response rating, Galium: 500 g ai/ha
# From the text: as §2, §3
# [14] = system: giant foxtail (Setaria faberii); assay: Test A postemergence; settings: for Foxtail, Giant plant response rating: 125 g ai/ha, visual injury rating on 0 to 100 scale (0 no effect, 100 complete control), approx. 10 d; for Plant response rating, Foxtail, Giant: 500 g ai/ha
# From the text: as §2, §3
# [15] = system: wheat (Triticum aestivum); assay: Test A postemergence; settings: for Wheat plant response rating: 125 g ai/ha, visual injury rating on 0 to 100 scale (0 no effect, 100 complete control), approx. 10 d; for Plant response rating, Wheat: 500 g ai/ha
# From the text: as §2, §3
# [16] = system: ragweed (common ragweed, Ambrosia elatior); assay: Test A postemergence; settings: for Ragweed plant response rating: 125 g ai/ha, visual injury rating on 0 to 100 scale (0 no effect, 100 complete control), approx. 10 d; for Plant response rating, Ragweed: 500 g ai/ha
# From the text: as §2, §3
# [17] = system: blackgrass (Alopecurus myosuroides); assay: Test A postemergence; settings: for Blackgrass plant response rating: 125 g ai/ha, visual injury rating on 0 to 100 scale (0 no effect, 100 complete control), approx. 10 d; for Plant response rating, Blackgrass: 500 g ai/ha
# From the text: as §2, §3
# corn (Zea mays) = assay: Test A postemergence; settings: for Corn plant response rating: 125 g ai/ha, visual injury rating on 0 to 100 scale (0 no effect, 100 complete control), approx. 10 d; for Plant response rating, Corn: 500 g ai/ha
# From the text: as §2, §3
# [18] = system: barnyardgrass (Echinochloa crus-galli); assay: Test A postemergence; settings: for Barnyardgrass plant response rating: 125 g ai/ha, visual injury rating on 0 to 100 scale (0 no effect, 100 complete control), approx. 10 d; for Plant response rating, Barnyardgrass: 500 g ai/ha
# From the text: as §2, §3
# [19] = preemergence, 0 to 100 scale (0 no effect, 100 complete control)
# [20] = postemergence, 0 to 100 scale, 0 no effect, 100 complete control
# [21] = Preemergence, visual injury after approximately 10 d, 0 to 100 scale where 0 is no effect and 100 is complete control
# [22] = Postemergence, 0 to 100 scale where 0 is no effect and 100 is complete control
smiles,measurement,setting,value
COc1cccc(NC(=O)C2C(=O)NCC2c2ccc(F)c(F)c2)c1F (stereo not drawn) [Compound 416],"Plant response rating, Ducksalad",[1]; 500 g ai/ha,50
same,"Plant response rating, Sedge, Umbrella",[2]; 500 g ai/ha,0
same,"Plant response rating, Rice",rice (Oryra sativa); 500 g ai/ha,15
same,"Plant response rating, Barnyardgrass",[3]; 500 g ai/ha,0
same,"Plant response rating, Pigweed",[4]; [19],0
same,"Pigweed plant response rating (0 to 100 scale, 0 is no effect, 100 is complete control)",[4]; Preemergence,0
same,"Plant response rating, Kochia",Kochia (Kochia scoparia) [5]; [19],0
same,"Kochia plant response rating (0 to 100 scale, 0 is no effect, 100 is complete control)",Kochia (Kochia scoparia) [5]; Preemergence,0
same,"Plant response rating, Ryegrass, Italian",[6]; [19],0
same,"Ryegrass, Italian plant response rating (0 to 100 scale, 0 is no effect, 100 is complete control)",[6]; Preemergence,0
same,"Plant response rating, Foxtail, Giant",[7]; [19],0
same,"Foxtail, Giant plant response rating (0 to 100 scale, 0 is no effect, 100 is complete control)",[7]; Preemergence,50
same,"Plant response rating, Ragweed",[8]; [19],0
same,"Ragweed plant response rating (0 to 100 scale, 0 is no effect, 100 is complete control)",[8]; Preemergence,0
same,"Plant response rating, Barnyardgrass",[9]; [19],0
same,"Barnyardgrass plant response rating (0 to 100 scale, 0 is no effect, 100 is complete control)",[9]; Preemergence,0
same,Pigweed plant response rating,[10]; postemergence,0
same,"Plant response rating, Pigweed",[10]; [20],0
same,Kochia plant response rating,Kochia (Kochia scoparia) [11]; postemergence,0
same,"Plant response rating, Kochia",Kochia (Kochia scoparia) [11]; [20],0
same,"Ryegrass, Italian plant response rating",[12]; postemergence,0
same,"Plant response rating, Ryegrass, Italian",[12]; [20],0
same,Galium plant response rating,[13]; postemergence,0
same,"Plant response rating, Galium",[13]; [20],0
same,"Foxtail, Giant plant response rating",[14]; postemergence,0
same,"Plant response rating, Foxtail, Giant",[14]; [20],0
same,Wheat plant response rating,[15]; postemergence,0
same,"Plant response rating, Wheat",[15]; [20],0
same,Ragweed plant response rating,[16]; postemergence,0
same,"Plant response rating, Ragweed",[16]; [20],0
same,Blackgrass plant response rating,[17]; postemergence,0
same,"Plant response rating, Blackgrass",[17]; [20],0
same,Corn plant response rating,corn (Zea mays); postemergence,0
same,"Plant response rating, Corn",corn (Zea mays); [20],0
same,Barnyardgrass plant response rating,[18]; postemergence,0
same,"Plant response rating, Barnyardgrass",[18]; [20],0
O=C1NCC(c2ccc(C(F)(F)F)c(F)c2)C1C(=O)Nc1ccccc1F (racemic) [Compound 521],"Plant response rating, Ducksalad",[1]; 250 g ai/ha,85
same,"Plant response rating, Sedge, Umbrella",[2]; 250 g ai/ha,0
same,"Plant response rating, Rice",rice (Oryra sativa); 250 g ai/ha,0
same,"Plant response rating, Barnyardgrass",[3]; 250 g ai/ha,40
same,"Plant response rating, Pigweed",[4]; [21],60
same,"Pigweed plant response rating (0 to 100 scale, 0 is no effect, 100 is complete control)",[4]; Preemergence,70
same,"Plant response rating, Kochia",Kochia (Kochia scoparia) [5]; [21],0
same,"Kochia plant response rating (0 to 100 scale, 0 is no effect, 100 is complete control)",Kochia (Kochia scoparia) [5]; Preemergence,70
same,"Plant response rating, Ryegrass, Italian",[6]; [21],30
same,"Ryegrass, Italian plant response rating (0 to 100 scale, 0 is no effect, 100 is complete control)",[6]; Preemergence,50
same,"Plant response rating, Foxtail, Giant",[7]; [21],90
same,"Foxtail, Giant plant response rating (0 to 100 scale, 0 is no effect, 100 is complete control)",[7]; Preemergence,90
same,"Plant response rating, Ragweed",[8]; [21],40
same,"Ragweed plant response rating (0 to 100 scale, 0 is no effect, 100 is complete control)",[8]; Preemergence,60
same,"Plant response rating, Barnyardgrass",[9]; [21],90
same,"Barnyardgrass plant response rating (0 to 100 scale, 0 is no effect, 100 is complete control)",[9]; Preemergence,90
same,Pigweed plant response rating,[10]; postemergence,40
same,"Plant response rating, Pigweed",[10]; [22],50
same,Kochia plant response rating,Kochia (Kochia scoparia) [11]; postemergence,0
same,"Plant response rating, Kochia",Kochia (Kochia scoparia) [11]; [22],20
same,"Ryegrass, Italian plant response rating",[12]; postemergence,20
same,"Plant response rating, Ryegrass, Italian",[12]; [22],40
same,Galium plant response rating,[13]; postemergence,50
same,"Plant response rating, Galium",[13]; [22],60
same,"Foxtail, Giant plant response rating",[14]; postemergence,70
same,"Plant response rating, Foxtail, Giant",[14]; [22],90
same,Wheat plant response rating,[15]; postemergence,20
same,"Plant response rating, Wheat",[15]; [22],50
same,Ragweed plant response rating,[16]; postemergence,0
same,"Plant response rating, Ragweed",[16]; [22],0
same,Blackgrass plant response rating,[17]; postemergence,30
same,"Plant response rating, Blackgrass",[17]; [22],40
same,Corn plant response rating,corn (Zea mays); postemergence,30
same,"Plant response rating, Corn",corn (Zea mays); [22],40
same,Barnyardgrass plant response rating,[18]; postemergence,90
same,"Plant response rating, Barnyardgrass",[18]; [22],90

# Source: patent US12077503B2, “Substituted cyclic amides and their use as herbicides” (FMC CORPORATION, priority 2015, dated 2024)
